In the NIST ThermoML archive (doi:10.1016/j.jct.2015.08.002):
Numbers after ± are expanded uncertainties.

Test: mn = molality of the nth substance listed, in mol/kg
Conditions: 298 K, Wilhelmi plate tensiometer

`CCCCCCCCCCCC(=O)[O-].[Na+]` [sodium dodecanoate] + O showed a surface tension liquid-gas (m1 = 0.001) of 64.1 ± 2 mN/m, a surface tension liquid-gas (m1 = 0.002) of 62.2 ± 2 mN/m and a surface tension liquid-gas (m1 = 0.003) of 57.6 ± 2 mN/m. The surface tension liquid-gas (m1 = 0.004) was 54.4 ± 2 mN/m, the surface tension liquid-gas (m1 = 0.005) was 54.5 ± 2 mN/m and the surface tension liquid-gas (m1 = 0.006) was 49.9 ± 2 mN/m. For the same molecule, the surface tension liquid-gas (m1 = 0.007) was 45.8 ± 2 mN/m, the surface tension liquid-gas (m1 = 0.008) was 44.9 ± 2 mN/m and the surface tension liquid-gas (m1 = 0.009) was 44 ± 2 mN/m. For the same molecule, the surface tension liquid-gas (m1 = 0.01) was 44.2 ± 2 mN/m, the surface tension liquid-gas (m1 = 0.0105) was 41.7 ± 2 mN/m and the surface tension liquid-gas (m1 = 0.011) was 41.6 ± 2 mN/m. The surface tension liquid-gas (m1 = 0.012) was 40.9 ± 2 mN/m, the surface tension liquid-gas (m1 = 0.013) was 37.4 ± 2 mN/m and the surface tension liquid-gas (m1 = 0.014) was 37.3 ± 2 mN/m. It also gave a surface tension liquid-gas (m1 = 0.015) of 37.9 ± 2 mN/m.

In the case of `CCCCCCCCCCCCP(=O)([O-])[O-].[Na+].[Na+]` [sodium dodecylphosphonate] + O, the surface tension liquid-gas (m1 = 0.002) is reported as 66.6 ± 2 mN/m, the surface tension liquid-gas (m1 = 0.004) is reported as 58.5 ± 2 mN/m and the surface tension liquid-gas (m1 = 0.006) is reported as 52.9 ± 2 mN/m. The surface tension liquid-gas (m1 = 0.008) was 53.5 ± 2 mN/m, the surface tension liquid-gas (m1 = 0.01) was 52.4 ± 2 mN/m and the surface tension liquid-gas (m1 = 0.012) was 49.6 ± 2 mN/m. For the same molecule, the surface tension liquid-gas (m1 = 0.014) was 47.4 ± 2 mN/m, the surface tension liquid-gas (m1 = 0.016) was 44.4 ± 2 mN/m and the surface tension liquid-gas (m1 = 0.017) was 44 ± 2 mN/m. For the same molecule, the surface tension liquid-gas (m1 = 0.0175) was 40.9 ± 2 mN/m, the surface tension liquid-gas (m1 = 0.018) was 40.1 ± 2 mN/m and the surface tension liquid-gas (m1 = 0.0185) was 39.4 ± 2 mN/m. The surface tension liquid-gas (m1 = 0.019) was 40.4 ± 2 mN/m, the surface tension liquid-gas (m1 = 0.02) was 39.3 ± 2 mN/m and the surface tension liquid-gas (m1 = 0.021) was 39.6 ± 2 mN/m. For the same molecule, the surface tension liquid-gas (m1 = 0.025) was 38.2 ± 2 mN/m, the surface tension liquid-gas (m1 = 0.04) was 36.9 ± 2 mN/m and the surface tension liquid-gas (m1 = 0.05) was 39.3 ± 2 mN/m.

Work on `CCCCCCCC/C=C\CCCCCCCC(=O)[O-].[Na+]` [sodium oleate] + O yielded a surface tension liquid-gas (m1 = 5e-06) of 62.8 ± 2 mN/m, a surface tension liquid-gas (m1 = 1e-05) of 58 ± 2 mN/m and a surface tension liquid-gas (m1 = 2e-05) of 51.8 ± 2 mN/m. It also gave a surface tension liquid-gas (m1 = 3e-05) of 51.2 ± 2 mN/m, a surface tension liquid-gas (m1 = 4e-05) of 50.7 ± 2 mN/m and a surface tension liquid-gas (m1 = 5e-05) of 49.9 ± 2 mN/m. The surface tension liquid-gas (m1 = 0.0001) was 42 ± 2 mN/m, the surface tension liquid-gas (m1 = 0.0003) was 32.9 ± 2 mN/m and the surface tension liquid-gas (m1 = 0.0005) was 29.4 ± 2 mN/m. For the same molecule, the surface tension liquid-gas (m1 = 0.0009) was 26.6 ± 2 mN/m, the surface tension liquid-gas (m1 = 0.0013) was 25.6 ± 2 mN/m and the surface tension liquid-gas (m1 = 0.0015) was 25.4 ± 2 mN/m. The surface tension liquid-gas (m1 = 0.0018) was 25.1 ± 2 mN/m, the surface tension liquid-gas (m1 = 0.002) was 25.2 ± 2 mN/m and the surface tension liquid-gas (m1 = 0.003) was 25.1 ± 2 mN/m.
